Data published in PMC4945070 (PLoS Neglected Tropical Diseases, 2016).
Structures can show the parent of a compound that is named as a salt.

What was measured:
[1] = molecular target: H. contortus L-AChR1.1 (UNC-63, UNC-38, ACR-8, UNC-29.1) (Haemonchus contortus, UniProt A9XX24+D6MYE9+D6MYF3+D6MYF4); test: cell-based; settings: for Max. Inhibition ± S.E.: inhibition of 100 μM ACh current; for Emax at 100 µM: agonists at 100 μM, normalized to 100 μM acetylcholine, read-out: Max. Current ± S.E.
Experimental: (§1) The H. contortus cDNAs encoding AChR subunits and ancillary proteins were available as expression clones in the pTB207 vector and C. elegans expression clones were a gift from T. Boulin.. cRNA synthesis of each construct required NheI-linearized templates and was performed with the mMessage mMachine T7 Kit (Ambion) according to the manufacturer’s instructions. cRNAs were precipitated with lithium chloride and redissolved in RNAse-free water and stored at -80°C. cRNA concentration was determined using a Nanodrop spectrophotometer (Thermo Scientific) and cRNA purity and integrity was assessed by electrophoresis through a 1% gel stained with GreenGlo nucleic acid dye (Denville Scientific Inc.).
(§2) Oocytes were collected from mature Xenopus females according to standard procedures and incubated at 19°C in a ND96 solution (NaCl 96 mM, KCl 2 mM, CaCl2 1.8 mM, MgCl2 1 mM, and HEPES 5 mM, pH 7.3 supplemented with sodium pyruvate 2.5 mM). Defolliculated oocytes were injected into the animal pole with approximately 36 nL of a cRNA mix containing 50 ng/μL of each cRNA in RNAse-free water using the Nanoject system (Drummond Scientific, Broomall, PA). Negative controls consisted of oocytes injected with RNAse-free water. Oocytes were then stored at 19°C in ND96 for 5 days to allow receptor expression. In order to prevent activation of endogenous calcium-activated chloride channels, the oocytes were incubated in ND96 supplemented with 100 μM of the calcium chelator BAPTA-AM, 4h prior to recording.
(§3) Two-electrode voltage-clamp experiments were carried out using a perfusion system connected to a flat RC-1Z chamber (Harvard Apparatus). Glass electrodes were filled with 3M KCl and checked for resistance between 1 and 3 MΩ. The oocyte bath was connected to the ground through a 3 M KCl agar bridge. Agonist and antagonists were dissolved or diluted in recording solution (100 mM NaCl, 2.5 mM KCl, 1 mM CaCl2, 5 mM HEPES, pH 7.3). All measurements were performed using a Geneclamp 500B amplifier and Digidata 1322M (Axon Instruments), oocytes were voltage-clamped at -60 mV. Drug solutions were applied to oocytes by gravity flow using perfusion syringes directly connected to the chamber. Data were collected and analyzed using Clampex 9.2 and Clampfit 9.2 (Axon Instruments, Sunnyvale, CA, USA). Traces were filtered at 30 Hz and analyzed using GraphPad Prism 5.0 software (GraphPad Software, San Diego, CA, USA). Final results are presented as means ± SE.

[2] = molecular target: H. contortus L-AChR1.3 (UNC-63, UNC-38, ACR-8, UNC-29.3) (Haemonchus contortus, UniProt A9XX24+D6MYF1+D6MYF3+D6MYF4); test: cell-based; settings: for Max Inhibition ± S.E.: inhibition of 100 μM ACh current; for Emax at 100 µM: agonists at 100 μM, normalized to 100 μM acetylcholine, read-out: Max. Current ± S.E.
Experimental: as §1, §2, §3

[3] = molecular target: H. contortus L-AChR1.4 (UNC-63, UNC-38, ACR-8, UNC-29.4) (Haemonchus contortus, UniProt A9XX24+D6MYF2+D6MYF3+D6MYF4); test: cell-based; assay type: cell-based; settings: for Emax at 100 µM: agonists at 100 μM, normalized to 100 μM acetylcholine, read-out: Max. Current ± S.E.
Experimental: as §1, §2, §3

[4] = system: H. contortus L-AChR1.2 (UNC-63, UNC-38, ACR-8, UNC-29.2); assay type: cell-based, Haemonchus contortus
Experimental: as §1, §2
(§4) Two-electrode voltage-clamp experiments were carried out using a perfusion system connected to a flat RC-1Z chamber (Harvard Apparatus). Glass electrodes were filled with 3M KCl and checked for resistance between 1 and 3 MΩ. The oocyte bath was connected to the ground through a 3 M KCl agar bridge. […] Data were collected and analyzed using Clampex 9.2 and Clampfit 9.2 (Axon Instruments, Sunnyvale, CA, USA). Traces were filtered at 30 Hz and analyzed using GraphPad Prism 5.0 software (GraphPad Software, San Diego, CA, USA). […]

[5] = molecular target: H. contortus L-AChR1.1 with added UNC-29.2 (Haemonchus contortus, UniProt A9XX24+D6MYE9+D6MYF3+D6MYF4); test: Two-electrode voltage clamp of L-AChR1.1 supplemented with unc-29.2 cRNA in Xenopus oocytes; assay type: cell-based
Description: Typically, such a situation can be identified by a change in the pharmacological properties of a receptor with addition of the second subunit. To address this, we examined the possibility that UNC-29.2 may interfere with or modify the properties of the reconstituted L-AChR1.1. We prepared oocytes injected with cRNAs to express the H. contortus L-AChR1.1 and supplemented this with an increasing (0.2, 1, 5 times) concentration of cRNA for UNC-29.2 relative to UNC-29.1.
as §1, §2, §3

[6] = system: C. elegans L-AChR subunits (Cel-unc-63, Cel-unc-38, Cel-lev-8, Cel-lev-1) with Hco-unc-29 paralog; test: Two-electrode voltage clamp of C. elegans / H. contortus AChR subunit admixtures in Xenopus oocytes; assay type: cell-based
Description: To confirm that the LEV sensitivity rescue could be due to the functional incorporation of parasite protein into the C. elegans L-AChR, we injected into Xenopus oocytes, cRNA admixtures of the four essential C. elegans L-AChR subunits: Cel-unc-63, Cel-unc-38, Cel-lev-8 and Cel-lev-1, the three H. contortus accessory proteins: ric-3, unc-50 and unc-74, and the Cel-unc-29 or each Hco-unc-29 paralog in turn. Reconstitution of the C. elegans L-AChR with Cel-unc-29 produced functional channels as previously described, confirming that the H. contortus accessory proteins are functional between species. Omitting unc-29 produced no response, so any current produced using parasite genes must involve their incorporation into a functional L-AChR. […] UNC-29.1 produced an average of 500 μA currents, while the other three produced reproducible currents below 200 nA with UNC-29.2 producing the smallest response on average (S1 Fig).
as §1, with “Inc.). […]” for “Inc.).”
as §4, with “Apparatus).” for “Apparatus). Glass electrodes were filled with 3M KCl and checked for resistance between 1 and 3 MΩ. The oocyte bath was connected to the ground through a 3 M KCl agar bridge.”

[7] = L-AChR1.1, dTC 100 μM, DHβE 10 μM, MECA 30 μM
[8] = read-out: blocking of ACh elicited currents
[9] = L-AChR1.3, dTC 100 μM, DHβE 10 μM, MECA 30 μM

## CNC1(C)C2CCC(C2)C1(C)C (stereo not shown) [Mecamylamine, mecamylamine hydrochloride]
[1]; L-AChR1.1
  MECA inhibition (summary): Full Inhibition
[1]; [7]
  Max. Inhibition ± S.E.: 99.91 ± 0.09
[1]; [8]
  inhibition at 30 µM: 99.9 ± 0.1%
[2]; L-AChR1.3
  MECA inhibition (summary): Partial Inhibition
[2]; [9]
  Max Inhibition ± S.E.: 56.87 ± 3.18
[2]; [8]
  inhibition at 30 µM: 56.9 ± 3.2%
[3]; L-AChR1.4
  MECA inhibition (summary): Full Inhibition
[3]; [8]
  inhibition at 30 µM: 96.4 ± 1.9%

## CC(=O)OCC[N+](C)(C)C [ACh, Acetylcholine chloride]
[1]; L-AChR1.1 (Hco-UNC-29.1)
  Max ACh Current: ~1.5 μA
[1]; L-AChR1.1, Hill coefficient of concentration-response curve
  Hill: 0.88 ± 0.05
[1]; L-AChR1.1
  Emax at 100 µM: 100%
[2]; L-AChR1.3 (Hco-UNC-29.3)
  Max ACh Current: ~1.5 μA
[2]; L-AChR1.3, Hill coefficient of concentration-response curve
  Hill: 0.89 ± 0.05
[2]; L-AChR1.3
  Emax at 100 µM: 100%
[3]; L-AChR1.4 (Hco-UNC-29.4)
  Max ACh Current: ~500 nA
[3]; L-AChR1.4, Hill coefficient of concentration-response curve
  Hill: 1.12 ± 0.04
[3]; L-AChR1.4
  Emax at 100 µM: 100%
[4]; UNC-29.1 replaced by UNC-29.2, n = 18
  current in response to 100 μM perfusion: failed to produce any detectable current
[4]; receptor with Hco-UNC-29.2
  Max ACh Current: 0 μA
[5]; 0.2, 1, 5 times unc-29.2 cRNA relative to UNC-29.1
  effect of unc-29.2 cRNA on the pharmacological response: no effect
[5]; 29.1 : 29.2 cRNA 1 : 0.2
  Hill: 0.91 ± 0.08
[5]; 29.1 : 29.2 cRNA 1 : 1
  Hill: 0.96 ± 0.13
[5]; 29.1 : 29.2 cRNA 1 : 5
  Hill: 1.09 ± 0.10
[6]; admixture with UNC-29.1
  average current on perfusion of 100 μM ACh: 500 μA
[6]; admixtures with the other three paralogs (UNC-29.2, UNC-29.3, UNC-29.4)
  current on perfusion of 100 μM ACh: below 200 nA

## Br.CO[C@H]1CC=C2CCN3CCC4=C(CC(=O)OC4)[C@]23C1 [DHßE, Dihydro-berythroidine hydrobromide]
[1]; L-AChR1.1, dTC 100 μM, DHβE 10 μM, MECA 30 μM, 100 μM ACh
  blocking of ACh elicited currents: weak average inhibition
[1]; [7]
  Max. Inhibition ± S.E.: 15.98 ± 2.16
[2]; L-AChR1.3, dTC 100 μM, DHβE 10 μM, MECA 30 μM, 100 μM ACh
  blocking of ACh elicited currents: weak average inhibition
[2]; [9]
  Max Inhibition ± S.E.: 23.55 ± 1.94
[3]; L-AChR1.4, dTC 100 μM, DHβE 10 μM, MECA 30 μM, 100 μM ACh
  blocking of ACh elicited currents: weak average inhibition
[3]; L-AChR1.4, inhibition of 100 μM ACh current, dTC 100 μM, DHβE 10 μM, MECA 30 μM
  Max Inhibition ± S.E.: 16.51 ± 5.73

## C[N+](C)(CCOc1ccccc1)Cc1ccccc1 [Bephenium, bephenium hydroxynaphtoate]
[1]; L-AChR1.1
  Emax at 100 µM: 13.9 ± 1.7%
[2]; L-AChR1.3
  Emax at 100 µM: 9.59 ± 0.83%
[3]; L-AChR1.4
  Emax at 100 µM: 6.45 ± 0.84%
